# Tests used:
# Test in all cases: viability inhibition at highest dose (% inhibition); higher = more growth inhibition
# [1] = system: MCF-7; conditions: 72 h
# Description: (§1)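 Percent inhibition of viability (CellTiter-Glo, 72 h) at the highest tested concentration (D5), normalised to DMSO (0%) and 100 µM benzethonium chloride (100%). Resistant lines and the 'in 1µM tamoxifen' arms were tested in 1 µM 4-OH-tamoxifen.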
# [2] = system: T-47D; conditions: 72 h
# Description: as §1
# [3] = system: BT-474 Tam1; conditions: 4-OH-tamoxifen in medium 1 µM; 72 h
# Description: as §1
# [4] = system: ZR-75-1 Tam2; conditions: 4-OH-tamoxifen in medium 1 µM; 72 h
# Description: as §1
# [5] = system: BT-474 Tam2; conditions: 4-OH-tamoxifen in medium 1 µM; 72 h
# Description: as §1
# [6] = system: ZR-75-1; conditions: 72 h
# Description: as §1
# [7] = system: T-47D Tam2; conditions: 4-OH-tamoxifen in medium 1 µM; 72 h
# Description: as §1
# [8] = system: T-47D Tam1; conditions: 4-OH-tamoxifen in medium 1 µM; 72 h
# Description: as §1
# [9] = system: ZR-75-1 Tam1; conditions: 4-OH-tamoxifen in medium 1 µM; 72 h
# Description: as §1
# [10] = system: MCF-7 Tam1; conditions: 4-OH-tamoxifen in medium 1 µM; 72 h
# Description: as §1
# [11] = system: BT-474; conditions: 72 h
# Description: as §1
structure (smiles),measurement,setting,value
S=c1[nH]cnc2nc[nH]c12 [Mercaptopurine] (drug 10000 nM),viability inhibition at highest dose,[1]; 4-OH-tamoxifen in medium 0 µM,18.1
same,viability inhibition at highest dose,[1]; 4-OH-tamoxifen in medium 1 µM,27.8
same,viability inhibition at highest dose,[2]; 4-OH-tamoxifen in medium 0 µM,3.17
same,viability inhibition at highest dose,[2]; 4-OH-tamoxifen in medium 1 µM,-0.759
same,viability inhibition at highest dose,[3],3.48
same,viability inhibition at highest dose,[4],18
same,viability inhibition at highest dose,[5],6.87
same,viability inhibition at highest dose,[6]; 4-OH-tamoxifen in medium 0 µM,39.5
same,viability inhibition at highest dose,[6]; 4-OH-tamoxifen in medium 1 µM,6.71
same,viability inhibition at highest dose,[7],12.1
same,viability inhibition at highest dose,[8],11.9
same,viability inhibition at highest dose,[9],35.5
same,viability inhibition at highest dose,[10],11.9
same,viability inhibition at highest dose,[11]; 4-OH-tamoxifen in medium 0 µM,3.7
same,viability inhibition at highest dose,[11]; 4-OH-tamoxifen in medium 1 µM,13.8
CN(Cc1cnc2nc(N)nc(N)c2n1)c1ccc(C(=O)N[C@@H](CCC(=O)O)C(=O)O)cc1 [Methotrexate] (drug 10000 nM),viability inhibition at highest dose,[1]; 4-OH-tamoxifen in medium 0 µM,18.8
same,viability inhibition at highest dose,[1]; 4-OH-tamoxifen in medium 1 µM,29.1
same,viability inhibition at highest dose,[2]; 4-OH-tamoxifen in medium 0 µM,-7.44
same,viability inhibition at highest dose,[2]; 4-OH-tamoxifen in medium 1 µM,-4.13
same,viability inhibition at highest dose,[3],-17.3
same,viability inhibition at highest dose,[4],10.5
same,viability inhibition at highest dose,[5],2.17
same,viability inhibition at highest dose,[6]; 4-OH-tamoxifen in medium 0 µM,22.8
same,viability inhibition at highest dose,[6]; 4-OH-tamoxifen in medium 1 µM,2.09
same,viability inhibition at highest dose,[7],6.27
same,viability inhibition at highest dose,[8],-0.232
same,viability inhibition at highest dose,[9],15.9
same,viability inhibition at highest dose,[10],14.2
same,viability inhibition at highest dose,[11]; 4-OH-tamoxifen in medium 0 µM,-11.3
same,viability inhibition at highest dose,[11]; 4-OH-tamoxifen in medium 1 µM,-21.2
CO[C@H](C(=O)[C@@H](O)[C@@H](C)O)[C@@H]1Cc2cc3cc(O[C@H]4C[C@@H](O[C@@H]5C[C@@H](O)[C@H](O)[C@@H](C)O5)[C@H](O)[C@@H](C)O4)c(C)c(O)c3c(O)c2C(=O)[C@H]1O[C@H]1C[C@@H](O[C@@H]2C[C@@H](O)[C@@H](O[C@@H]3C[C@](C)(O)[C@H](O)[C@@H](C)O3)[C@@H](C)O2)[C@H](O)[C@@H](C)O1 [Plicamycin  (Mithramycin A)] (drug 10000 nM),viability inhibition at highest dose,[1]; 4-OH-tamoxifen in medium 0 µM,88.9
same,viability inhibition at highest dose,[1]; 4-OH-tamoxifen in medium 1 µM,88.9
same,viability inhibition at highest dose,[2]; 4-OH-tamoxifen in medium 0 µM,68.7
same,viability inhibition at highest dose,[2]; 4-OH-tamoxifen in medium 1 µM,44.3
same,viability inhibition at highest dose,[3],95.9
same,viability inhibition at highest dose,[4],83.4
same,viability inhibition at highest dose,[5],95.5
same,viability inhibition at highest dose,[6]; 4-OH-tamoxifen in medium 0 µM,62.6
same,viability inhibition at highest dose,[6]; 4-OH-tamoxifen in medium 1 µM,63.7
same,viability inhibition at highest dose,[7],58.7
same,viability inhibition at highest dose,[8],62
same,viability inhibition at highest dose,[9],75.3
same,viability inhibition at highest dose,[10],77.5
same,viability inhibition at highest dose,[11]; 4-OH-tamoxifen in medium 0 µM,67.7
same,viability inhibition at highest dose,[11]; 4-OH-tamoxifen in medium 1 µM,95
Cc1cc(Nc2cc(CN3CCOCC3)c3nc(C)c(Cc4ccc(Cl)cc4F)n3n2)n[nH]1 (drug 10000 nM),viability inhibition at highest dose,[1]; 4-OH-tamoxifen in medium 0 µM,66.7
same,viability inhibition at highest dose,[1]; 4-OH-tamoxifen in medium 1 µM,68
same,viability inhibition at highest dose,[2]; 4-OH-tamoxifen in medium 0 µM,21.2
same,viability inhibition at highest dose,[2]; 4-OH-tamoxifen in medium 1 µM,24.4
same,viability inhibition at highest dose,[3],96.7
same,viability inhibition at highest dose,[4],16.8
same,viability inhibition at highest dose,[5],96.4
same,viability inhibition at highest dose,[6]; 4-OH-tamoxifen in medium 0 µM,-23.2
same,viability inhibition at highest dose,[6]; 4-OH-tamoxifen in medium 1 µM,0.926
same,viability inhibition at highest dose,[7],46.2
same,viability inhibition at highest dose,[8],45.6
same,viability inhibition at highest dose,[9],-2.02
same,viability inhibition at highest dose,[10],47.8
same,viability inhibition at highest dose,[11]; 4-OH-tamoxifen in medium 0 µM,5.76
same,viability inhibition at highest dose,[11]; 4-OH-tamoxifen in medium 1 µM,66.4
C=CC(=O)N1CCC[C@@H](n2nc(-c3ccc(Oc4ccccc4)cc3)c3c(N)ncnc32)C1 (drug 1000 nM),viability inhibition at highest dose,[1]; 4-OH-tamoxifen in medium 0 µM,-5.41
same,viability inhibition at highest dose,[1]; 4-OH-tamoxifen in medium 1 µM,23
same,viability inhibition at highest dose,[2]; 4-OH-tamoxifen in medium 0 µM,-1.5
same,viability inhibition at highest dose,[2]; 4-OH-tamoxifen in medium 1 µM,-2.82
same,viability inhibition at highest dose,[3],98.2
same,viability inhibition at highest dose,[4],5.37
same,viability inhibition at highest dose,[5],96.5
same,viability inhibition at highest dose,[6]; 4-OH-tamoxifen in medium 0 µM,7.99
same,viability inhibition at highest dose,[6]; 4-OH-tamoxifen in medium 1 µM,7.55
same,viability inhibition at highest dose,[7],14.1
same,viability inhibition at highest dose,[8],19.8
same,viability inhibition at highest dose,[9],1.82
same,viability inhibition at highest dose,[10],-17.1
same,viability inhibition at highest dose,[11]; 4-OH-tamoxifen in medium 0 µM,69.5
same,viability inhibition at highest dose,[11]; 4-OH-tamoxifen in medium 1 µM,94.6
Nc1ncn([C@H]2C[C@H](O)[C@@H](CO)O2)c(=O)n1 [Decitabine (Dacogen)] (drug 10000 nM),viability inhibition at highest dose,[1]; 4-OH-tamoxifen in medium 0 µM,17.6
same,viability inhibition at highest dose,[1]; 4-OH-tamoxifen in medium 1 µM,2.36
same,viability inhibition at highest dose,[2]; 4-OH-tamoxifen in medium 0 µM,-15
same,viability inhibition at highest dose,[2]; 4-OH-tamoxifen in medium 1 µM,-11.2
same,viability inhibition at highest dose,[3],-15.7
same,viability inhibition at highest dose,[4],-2.91
same,viability inhibition at highest dose,[5],-4.48
same,viability inhibition at highest dose,[6]; 4-OH-tamoxifen in medium 0 µM,-8.36
same,viability inhibition at highest dose,[6]; 4-OH-tamoxifen in medium 1 µM,-6.99
same,viability inhibition at highest dose,[7],-3.18
same,viability inhibition at highest dose,[8],-9.55
same,viability inhibition at highest dose,[9],-4.61
same,viability inhibition at highest dose,[10],-12.3
same,viability inhibition at highest dose,[11]; 4-OH-tamoxifen in medium 0 µM,-1.68
same,viability inhibition at highest dose,[11]; 4-OH-tamoxifen in medium 1 µM,-2.07

# — the supplement of paper PMC4932681
